Measurements as given in US9493480B2, “Monomeric trioxane amide sulfur compounds” (THE JOHNS HOPKINS UNIVERSITY, priority 2011, dated 2016).
“Also recorded” adds a separate entry of the source.

Experiments:
[1] = test system: Plasmodium berghei, ANKA malaria strain; assay: In vivo antimalarial efficacy, single oral dose of trioxane combined with mefloquine hydrochloride in P. berghei infected mice; settings: for mouse survival in words: single oral dose 100 mg/kg; for cure outcome (survival to day 30 with no detectable parasites = complete cure): single oral dose of trioxane (6 mg/kg) combined with mefloquine hydrochloride (18 mg/kg); for parasitemia on day 30 after infection in surviving mice: value of one mouse where so stated
Protocol: […] Rosenthal, A. S., et al., Malaria-infected Mice are Cured by a Single Oral Dose of New Dimeric Trioxane Sulfones Which are Also Selectively and Powerfully Cytotoxic to Cancer Cells. J. Med. Chem. 2009, 52, 1198-1203. Each of four mice in a group was treated orally 24 hours post infection with a single dose of 0.20 mL [(0.20 mL/1.07 mL)×0.64 mg=0.12 mg] of diluted trioxane solution, […] Alternatively, a single dose of 7.5 mg/kg of trioxane plus 15.0 mg/kg of mefloquine hydrochloride was used. The malariometrics used involved determining blood parasitemia levels, as well as monitoring the duration of animal survival compared to survival time of infected animals receiving no drug.
The average survival time of the malaria-infected animals receiving no drug was 6.8 days post infection. All of the infected mice in this study receiving the trioxane drug artemether (2b) plus mefloquine died on the average on day 18.8 post infection (Table 1, controls). Additionally, a single oral dose of artemether (6 mg/kg) plus lumefantrine (18 mg/kg) was not curative (see Table 1), with the mice dying an average of 12.5 days after infection. […]
(§1) A widely accepted indication of complete cure (i.e., 100% efficacy) is survival of animals to day 30 post infection with no detectable malaria parasites in the animals' blood at that time. It is important to note that the combination of the standard trioxane drug artemether (2b), with either mefloquine hydrochloride or lumefantrine, was not curative (Table 1, controls). […] While 3-fluoroanilide 12b was not curative, administration of 3-methylthioether 3-arteSanilide 12d at a dose of 7.5 mg/kg plus 15 mg/kg mefloquine hydrochloride achieved mouse survival through day 30 after infection; however, all four of the surviving mice appeared sick and had considerable parasitemia levels (25-50%). […] In addition, 3-arteSanilide 12d is more efficacious than 4-arteSanilide 12c. […] Replacing the sulfur atom in 12d with an oxygen atom afforded methyl ether 12p, which prolonged survival time to only 21.8 days after infection. This observation indicates the critical nature of the sulfur atom. In addition, the lipophilicity of 3-arteSanilide 12d was increased by lengthening the alkyl sulfide chain from methyl to n-propyl. 3-n-Propyl sulfide 12l, however, is much less efficacious than the curative methyl sulfide 3-arteSanilide 12d.

[2] = test system: P. falciparum (NF54) Parasites; assay: In vitro antimalarial potencies of trioxanes against P. falciparum (NF54) parasites; format: cell-based; settings: Plasmodium falciparum, M ± SD of at least four determinations
Protocol: Biology: In Vitro Potencies. Prompted by the unexpected in vivo efficacy of 3-arteSanilide 12d, the in vitro the intrinsic antimalarial activity, free of host-mediated factors, was assayed of compounds that differ in the oxidative state of the sulfur atom (Table 2).

[3] = Stability of the neat compound at 60° C.; format: physicochemical; settings: absence of solvent
Description: Hydroboration-oxidation followed by oxidation of the resulting primary alcohol produced C-10 carboxylic acid 11. Posner, G. H., et al., Orally Active, Antimalarial, Anticancer, Artemisinin-derived Trioxane Dimers with High Stability and Efficacy. J. Med. Chem. 2003, 46, 1060-1065. Condensation of carboxylic acid 11 with various anilines yielded a library of C-10 monomeric trioxane anilides 12b-h, 12l, 12o-q (FIG. 2). Scale up synthesis is expected to be straightforward. Without wishing to be bound to any one particular theory, because these anilides 12b-q are C-10 non-acetal derivatives, they are more hydrolytic ally stable than the C-10 acetal first generation artemisinin derivatives, such as artemether (2b) or artesunate (2c). In the absence of solvent, neat 3-arteSanilide 12d, for example, is stable for at least 7 days at 60° C.

[4] = Overt toxicity, behavior and weight gain of treated malaria-infected mice; format: in vivo; settings: for toxicity of single oral dose: single oral dose 100 mg/kg, no mefloquine
Protocol: as §1

P388 leukemia = settings: NCI Report on NSC 369397, tested on 25 Oct. 1983; cited from earlier work
[5] = single oral dose: trioxane 7.5 mg/kg + mefloquine hydrochloride 15 mg/kg
[6] = single oral dose: trioxane 7.5 mg/kg + mefloquine hydrochloride 15 mg/kg, mice, 4 per group
[7] = Plasmodium berghei, 72 h, single oral dose: trioxane 100 mg/kg, no mefloquine, read-out: % suppression of parasitemia (on day 3 after infection)
[8] = single oral dose 24 h post infection: trioxane 6 mg/kg + mefloquine hydrochloride 18 mg/kg, C57BL/6J male mice, 4 per group
[9] = single oral dose: trioxane 6 mg/kg + mefloquine hydrochloride 18 mg/kg
[10] = single oral dose: trioxane 100 mg/kg, no mefloquine
[11] = single oral dose: artemether 6 mg/kg + lumefantrine 18 mg/kg
[12] = mefloquine hydrochloride alone, single oral dose 15 mg/kg
[13] = mefloquine hydrochloride alone, single oral dose 18 mg/kg

| Compound | % suppression of parasitemia (on day 3 after infection) [1, 5] | average survival (days) after infection [1, 6] | average survival (days) after infection [1, 8] | % suppression of parasitemia (on day 3 after infection) [1, 9] | EC50 [2] | other results |
| --- | --- | --- | --- | --- | --- | --- |
| CSc1ccc(NC(=O)CC[C@H]2O[C@@H]3O[C@@]4(C)CC[C@H]5[C@H](C)CC[C@@H]([C@H]2C)[C@@]35OO4)cc1 [12c, 4-arteSanilide] | >99.9% | 16.3 days | – | – | – | – |
| CSc1cccc(NC(=O)CC[C@H]2O[C@@H]3O[C@@]4(C)CC[C@H]5[C@H](C)CC[C@@H]([C@H]2C)[C@@]35OO4)c1 [12d, 3-arteSanilide] | >99.9% | 30 days | 30 days | >99.9% | 9.1 ± 0.57 nM | inhibition in vivo at 100 mg/kg [1, 7]: 97.2%; parasitemia in uninfected mice inoculated with blood from the cured mice ([1]; donors: 6 mg/kg trioxane + 18 mg/kg mefloquine, read after 30 days): no parasitemia was detected; mouse survival in words ([1]; no mefloquine): prolonged mouse survival; cure outcome (survival to day 30 with no detectable parasites = complete cure) [1]: complete cure; also recorded: cures malaria-infected mice; parasitemia on day 30 after infection in surviving mice [1, 9]: ^bNo parasitemia detected on day 30 after infection.; average survival (days) after infection [1, 10]: 15.0 days; time stable, neat [3]: at least 7 days; weight gain by day 30 after infection ([4]; 6 mg/kg trioxane + 18 mg/kg mefloquine, compared with uninfected control mice): gained as much weight by day 30 after infection (data not shown) as the uninfected control mice; also recorded: gain as much weight as the control mice; overt toxicity or behavioral change attributable to trioxane administration ([4]; malaria-infected mice cured by trioxane combined with mefloquine hydrochloride): neither overt toxicity nor behavioral change; toxicity of single oral dose [4]: nontoxic |
| CSc1ccccc1NC(=O)CC[C@H]1O[C@@H]2O[C@@]3(C)CC[C@H]4[C@H](C)CC[C@@H]([C@H]1C)[C@@]24OO3 [12e, 2-arteSanilide] | – | – | 27.0 days | >99.9% | – | – |
| CSc1cc(NC(=O)CC[C@H]2O[C@@H]3O[C@@]4(C)CC[C@H]5[C@H](C)CC[C@@H]([C@H]2C)[C@@]35OO4)cc(SC)c1 [12f, 3,5-arteSSanilide] | – | – | 30 days | >99.9% | 6.5 ± 0.28 nM | inhibition in vivo at 100 mg/kg [1, 7]: 97.9%; mouse survival in words ([1]; no mefloquine): essentially no increase in mouse longevity; cure outcome (survival to day 30 with no detectable parasites = complete cure) [1]: partially curative; parasitemia on day 30 after infection in surviving mice [1, 9]: 5% and ^dThree mice were parasite-free on day 30, but one mouse had 5% parasitemia on day 30 after infection.; average survival (days) after infection [1, 10]: 7.5 days; toxicity of single oral dose [4]: nontoxic |
| C[C@H]1[C@@H](CCC(=O)Nc2cccc([S+](C)[O-])c2)O[C@@H]2O[C@@]3(C)CC[C@H]4[C@H](C)CC[C@@H]1[C@@]24OO3 (stereo partly shown) [12g] | – | – | 23.0 days | >99.9% | 23 ± 1.3 nM | cure outcome (survival to day 30 with no detectable parasites = complete cure) [1]: does not |
| C[C@H]1[C@@H](CCC(=O)Nc2cccc([S+](C)[O-])c2)O[C@@H]2O[C@]3(C)CC[C@H]4[C@H](C)CC[C@@H]1[C@@]24OO3 (stereo partly shown) [12h] | – | – | 30 days | >99.9% | 29 ± 0.43 nM | cure outcome (survival to day 30 with no detectable parasites = complete cure) [1]: partially curative; parasitemia on day 30 after infection in surviving mice [1, 9]: ^eOne mouse had 1.8% parasitemia on day 30 after infection. |
| C[C@H]1[C@@H](CCC(=O)Nc2ccc(S(C)(=O)=O)cc2)O[C@@H]2O[C@]3(C)CC[C@H]4[C@H](C)CC[C@@H]1[C@@]24OO3 [12i] | >99.9% | 22.5 days | – | – | – | – |
| C[C@H]1[C@@H](CCC(=O)Nc2cccc(S(C)(=O)=O)c2)O[C@@H]2O[C@@]3(C)CC[C@H]4[C@H](C)CC[C@@H]1[C@@]24OO3 [12j] | 99.9% | 15.5 days | – | – | 21 ± 1.1 nM | – |
| C[C@H]1[C@@H](CCC(=O)Nc2ccccc2S(C)(=O)=O)O[C@@H]2O[C@]3(C)CC[C@H]4[C@H](C)CC[C@@H]1[C@@]24OO3 [12k] | >99.9% | 22.8 days | – | – | – | – |
| CCCSc1cccc(NC(=O)CC[C@H]2O[C@@H]3O[C@]4(C)CC[C@H]5[C@H](C)CC[C@@H]([C@H]2C)[C@@]35OO4)c1 [12l] | – | – | 23.0 days | >99.9% | – | – |
| CCCS(=O)(=O)c1cccc(NC(=O)CC[C@H]2O[C@@H]3O[C@]4(C)CC[C@H]5[C@H](C)CC[C@@H]([C@H]2C)[C@@]35OO4)c1 [12m] | – | – | 11.0 days | >99.9% | – | – |
| CCCS(=O)(=O)c1ccccc1NC(=O)CC[C@H]1O[C@@H]2O[C@]3(C)CC[C@H]4[C@H](C)CC[C@@H]([C@H]1C)[C@@]24OO3 [12n] | – | – | 21.8 days | >99.9% | – | – |
| C[C@H]1[C@@H](CCC(=O)Nc2ccc(S(C)(=O)=O)cc2Cl)O[C@@H]2O[C@]3(C)CC[C@H]4[C@H](C)CC[C@@H]1[C@@]24OO3 [12o] | >99.9% | 24.5 days | – | – | – | – |
| COc1cccc(NC(=O)CC[C@H]2O[C@@H]3O[C@]4(C)CC[C@H]5[C@H](C)CC[C@@H]([C@H]2C)[C@@]35OO4)c1 [12p] | – | – | 21.8 days | >99.9% | – | – |
| CCCCCCOc1ccc(NC(=O)CC[C@H]2O[C@@H]3O[C@]4(C)CC[C@H]5[C@H](C)CC[C@@H]([C@H]2C)[C@@]35OO4)cc1 [12q] | >99.9% | 15.0 days | – | – | – | – |
| C[C@@H]1CC[C@H]2[C@@H](C)C(=O)O[C@@H]3O[C@@]4(C)CC[C@@H]1[C@]32OO4 [Artemisinin (1), artemisinin, reference compound] | – | – | – | – | 10 ± 1.1 nM | activity against P388 leukemia (P388 leukemia): inactive |
| CO[C@H]1O[C@@H]2O[C@@]3(C)CC[C@H]4[C@H](C)CC[C@@H]([C@H]1C)[C@@]24OO3 [artemether (2b), artemether, reference compound] | >99.9% | 19.8 days | 18.8 days | >99.9% | – | % suppression of parasitemia (on day 3 after infection) [1, 11]: >99.9%; average survival (days) after infection [1, 11]: 12.5 days |
| CCCCN(CCCC)CC(O)c1cc(Cl)cc2c1-c1ccc(Cl)cc1/C2=C/c1ccc(Cl)cc1 (stereo not shown) [lumefantrine, reference compound] | – | – | – | – | – | inhibition in vivo at 18 mg/kg ([1]; Plasmodium berghei, po, 72 h, read-out: % suppression of parasitemia (on day 3 after infection)): > 99.9%; average survival (days) after infection ([1]; lumefantrine alone, single oral dose 18 mg/kg): 21.5 days |
| Cl.OC(c1cc(C(F)(F)F)nc2c(C(F)(F)F)cccc12)C1CCCCN1 (stereo not shown) [mefloquine, mefloquine hydrochloride, reference compound] | – | – | – | – | – | % suppression of parasitemia (on day 3 after infection) [1, 12]: >99.9%; average survival (days) after infection [1, 12]: 15.5 days; % suppression of parasitemia (on day 3 after infection) [1, 13]: >99.9%; average survival (days) after infection [1, 13]: 19.8 days |
